Test results reported in publication PMC5504357, “Antifungal Potential of Copper(II), Manganese(II) and Silver(I) 1,10-Phenanthroline Chelates Against Multidrug-Resistant Fungal Species Forming the Candida haemulonii Complex: Impact on the Planktonic and Biofilm Lifestyles” (Frontiers in Microbiology, 2017).
Converted amounts (≈) assume the structure as drawn. Like-named read-outs stand apart in the source and are kept apart here.

How the values were obtained:
Solubility in solvents = format: physicochemical; details: solvents as named
Method: {[Cu(3,6,9-tdda)(phen)2].3H2O.EtOH}n (7). Step (i): Copper(II) acetate hydrate (1.50 g; 7.51 mmol) was dissolved in ethanol (50 mL) and the solution was added to an ethanolic solution (25 mL) of 3,6,9-trioxaundecanedioic acid (3,6,9-tddaH2) (2.84 g; […]). The light-green suspension was refluxed for 1 h, and after cooling to room temperature the light-green solid, [Cu(3,6,9-tdda)].H2O, was filtered off, washed with cold ethanol and air dried. Yield: 1.88 g (82.97%). % Calculated: C: 31.84, H: 4.68. % Found: C: 32.20, H: 4.60. […] Step (ii): [Cu(3,6,9-tdda)].H2O (1.00 g; 3.31 mmol) and phen (2.39 g; 13.26 mmol) were dissolved together in ethanol (50 mL) and the resulting dark-green mixture was refluxed for 2 h. The suspension was cooled and the green solid, {[Cu(3,6,9-tdda)(phen)2]3H2O.EtOH}n(7), was filtered off, washed with cold ethanol and air dried. Yield: 1.63 g (66.09%). % Calculated: C: 54.87, H: 5.42, N: 7.53. % Found: C: 54.65, H: 5.63, N: 7.39.
[Ag2(3,6,9-tdda)(phen)4].EtOH (16). Step (i): Silver(I) acetate (3.00 g; 17.97 mmol) was dissolved in ethanol (30 mL) and the solution was added to an ethanolic solution (25 mL) of 3,6,9-trioxaundecanedioic acid (3,6,9-tddaH2) (2.84 g; 8.95 mmol) and the orange-brown suspension refluxed for 3 h. […] Green [Ag2(3,6,9-tdda)(phen)4].EtOH (16) precipitated and was filtered off, washed with cold ethanol and air dried. Yield: 0.83 g (65.10%). % Calculated: C: 57.92, H: 4.19, N: 9.32. % Found: C: 57.75, H: […], N: 9.02. IR (KBr) νmax: 3380, 3046, 2905, 1978, 1804, 1618, 1585, 1509, 1421, 1322, 1263, 1215, 1121, 1077, 1018, 932, 890, 838, 726, 621, 465, 413 cm^−1. ^1H NMR (500 MHz, DMSO-d6, 313 K, TMS) δ = 9.12(8H, s), 8.63 (8H, d), 8.08 (8H, s), 7.91 (8H, dd), 3.74 (4H, s), 3.57 (8H, dd). ^13C NMR (125 MHz, DMSO-d6, 313 K, TMS) δ = 173.41, 151.28, 143.57, 138.03, 129.24, 127.37, 124.74, 71.44, 70.42, 69.74.

Candida duobushaemulonii [1] = experiment: Planktonic growth, broth microdilution (CLSI M27-A3), MIC; format: cell-based; details: Candidozyma duobushaemuli
Outline: (§1)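 Three clinical isolates per species (nail, blood, urine origin), grown in Sabouraud-dextrose 48 h at 37°C, were tested by CLSI M27-A3 broth microdilution in RPMI 1640 over 0.0625-32 mg/L. After 48 h at 37°C, MIC was the lowest concentration with no visible growth; the across-isolate value is a geometric mean MIC.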

[2] = system: Candida haemulonii var. vulnera; experiment: as above; format: cell-based; details: Candidozyma haemuli
Outline: as §1

Candida haemulonii [3] = experiment: as above; format: cell-based; details: Candidozyma haemuli
Outline: as §1

C. haemulonii complex = experiment: Planktonic growth, overall across all nine isolates; format: cell-based, Candida haemulonii complex; details: for MIC: Candidozyma haemuli, geometric mean across all nine strains, read-out: Overall GM-MIC; for effect on planktonic fungal growth/viability (in words): nine clinical isolates, 0.0625-32 mg/L
Outline: as §1

[4] = Mammalian cell toxicity (MTT assay) and selectivity index; format: cell-based, Human; details: human, A549 cells (human lung adenocarcinoma); MTT, 48 h incubation
Outline: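 A549 cells were exposed to compounds (0.0313–512 μg/mL) in DMEM for 48 h at 37 °C, 5% CO2. Viability was measured by MTT (3 h, dark), with formazan dissolved in DMSO and read at 450 nm. CC50 was derived, and SI calculated as A549 CC50 divided by C. haemulonii complex GM-MIC.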

Candida duobushaemulonii [5] = experiment: Biofilm-growing cells, XTT assay, bMIC; format: cell-based; details: for GM-bMIC: geometric mean, C. duobushaemulonii isolates; for bMIC: mature biofilm, 48 h, 50% inhibition of metabolic activity
Outline: (§2)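 Biofilms were grown from 10^6 yeast cells in Sabouraud-dextrose broth for 48 h at 37°C, washed three times with PBS pH 7.2, then exposed to compounds (same concentrations as planktonic assays) for another 48 h at 37°C. Metabolic activity was read by XTT reduction; bMIC is the lowest concentration giving 50% inhibition versus compound-free wells.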

[6] = system: Candida haemulonii var. vulnera; experiment: Biofilm-growing cells, XTT assay, bMIC; format: cell-based; details: for GM-bMIC: geometric mean, C. haemulonii var. vulnera isolates; for bMIC: mature biofilm, 48 h, 50% inhibition of metabolic activity
Outline: as §2

Candida haemulonii [7] = experiment: Biofilm-growing cells, XTT assay, bMIC; format: cell-based; details: for GM-bMIC: geometric mean, C. haemulonii isolates, values marked * do not include LIP Ch4 (>512); for bMIC: mature biofilm, 48 h, 50% inhibition of metabolic activity
Outline: as §2

[8] = system: Candida haemulonii complex; experiment: Biofilm-growing cells, overall across isolates; format: cell-based; details: geometric mean across strains, values marked * do not include LIP Ch4 (>512)
Outline: as §2

[9] = 48 h, isolate LIP Ch1, planktonic, 48 h, 37°C, read-out: MIC
[10] = 48 h, isolate LIP Ch6, planktonic, 48 h, 37°C, read-out: MIC
[11] = 48 h, isolate LIP Ch8, planktonic, 48 h, 37°C, read-out: MIC
[12] = geometric mean of three C. duobushaemulonii isolates, read-out: GM-MIC
[13] = 48 h, isolate LIP Ch5, planktonic, 48 h, 37°C, read-out: MIC
[14] = 48 h, isolate LIP Ch9, planktonic, 48 h, 37°C, read-out: MIC
[15] = 48 h, isolate LIP Ch11, planktonic, 48 h, 37°C, read-out: MIC
[16] = geometric mean of three C. haemulonii var. vulnera isolates, read-out: GM-MIC
[17] = 48 h, isolate LIP Ch4, planktonic, 48 h, 37°C, read-out: MIC
[18] = 48 h, isolate LIP Ch7, planktonic, 48 h, 37°C, read-out: MIC
[19] = 48 h, isolate LIP Ch12, planktonic, 48 h, 37°C, read-out: MIC
[20] = geometric mean of three C. haemulonii isolates, read-out: GM-MIC

Structure (SMILES)	Solubility (Solubility in solvents)	MIC (Candida duobushaemulonii [1]; [9]) [µg/mL]	MIC (Candida duobushaemulonii [1]; [10]) [µg/mL]	MIC (Candida duobushaemulonii [1]; [11]) [µg/mL]	MIC (Candida duobushaemulonii [1]; [12]) [µg/mL]	MIC [2, 13] [µg/mL]	MIC [2, 14] [µg/mL]	MIC [2, 15] [µg/mL]	MIC [2, 16] [µg/mL]	MIC (Candida haemulonii [3]; [17]) [µg/mL]	MIC (Candida haemulonii [3]; [18]) [µg/mL]	MIC (Candida haemulonii [3]; [19]) [µg/mL]	MIC (Candida haemulonii [3]; [20]) [µg/mL]	MIC (C. haemulonii complex; in μM) [µM]	MIC (C. haemulonii complex) [µg/mL]	effect on planktonic fungal growth/viability (in words) (C. haemulonii complex)	CC50 at 48 h [4] [µg/mL]	GM-bMIC (Candida duobushaemulonii [5]) [mg/L]	bMIC (Candida duobushaemulonii [5]; isolate LIP Ch1) [mg/L]	bMIC (Candida duobushaemulonii [5]; isolate LIP Ch6) [mg/L]	further results
O.O=C([O-])COCCOCCOCC(=O)[O-].[Cu+2] [[Cu(3,6,9-tdda)].H2O]	soluble in H2O, MeOH, EtOH and insoluble in CHCl3, ethyl acetate and acetone																				
O=C1C(=O)c2cccnc2-c2ncccc21 [phendione, 1,10-phenanthroline-5,6-dione, reference compound]		2 (≈ 9.52 µM)	4 (≈ 19 µM)	2 (≈ 9.52 µM)	2.52 (≈ 12 µM)	2 (≈ 9.52 µM)	2 (≈ 9.52 µM)	2 (≈ 9.52 µM)	2 (≈ 9.52 µM)	2 (≈ 9.52 µM)	2 (≈ 9.52 µM)	2 (≈ 9.52 µM)	2 (≈ 9.52 µM)	10.3	2.16	appreciably deterred fungal growth	2.02 (≈ 9.61 µM)	12.70	4	32	bMIC (Candida duobushaemulonii [5]; isolate LIP Ch8): 16 mg/L; GM-bMIC [6]: 20.16 mg/L; bMIC ([6]; isolate LIP Ch5): 16 mg/L; bMIC ([6]; isolate LIP Ch9): 16 mg/L; bMIC ([6]; isolate LIP Ch13): 32 mg/L; GM-bMIC (Candida haemulonii [7]): 11.31^* mg/L; bMIC (Candida haemulonii [7]; isolate LIP Ch4): >512 mg/L; bMIC (Candida haemulonii [7]; isolate LIP Ch7): 8 mg/L; bMIC (Candida haemulonii [7]; isolate LIP Ch14): 16 mg/L; Overall GM-bMIC ([8]; in μM): 76 µM; Overall GM-bMIC [8]: 14.67 mg/L
O.O.O=C([O-])COCCOCCOCC(=O)[O-].[Ag+].[Ag+] [[Ag2(3,6,9-tdda].2H2O]	soluble in hot H2O and hot DMSO																				
c1cnc2c(c1)ccc1cccnc12 [phen, 1,10-phenanthroline]		1 (≈ 5.55 µM)	1 (≈ 5.55 µM)	1 (≈ 5.55 µM)	1 (≈ 5.55 µM)	1 (≈ 5.55 µM)	1 (≈ 5.55 µM)	0.5 (≈ 2.77 µM)	0.79 (≈ 4.38 µM)	1 (≈ 5.55 µM)	1 (≈ 5.55 µM)	1 (≈ 5.55 µM)	1 (≈ 5.55 µM)	5.16	0.93	appreciably deterred fungal growth	4.3 (≈ 23.9 µM)	1	1	1	activity of metal-free phen relative to phendione (C. haemulonii complex; planktonic, more active than phendione): ~ 2 fold; bMIC (Candida duobushaemulonii [5]; isolate LIP Ch8): 1 mg/L; GM-bMIC [6]: 10.08 mg/L; bMIC ([6]; isolate LIP Ch5): 4 mg/L; bMIC ([6]; isolate LIP Ch9): 32 mg/L; bMIC ([6]; isolate LIP Ch13): 8 mg/L; GM-bMIC (Candida haemulonii [7]): 12.70 mg/L; bMIC (Candida haemulonii [7]; isolate LIP Ch4): 512 mg/L; bMIC (Candida haemulonii [7]; isolate LIP Ch7): 2 mg/L; bMIC (Candida haemulonii [7]; isolate LIP Ch14): 2 mg/L; Overall GM-bMIC ([8]; in μM): 27.96 µM; Overall GM-bMIC [8]: 5.04 mg/L
